Measured values taken from the NIST ThermoML archive (doi:10.1016/j.jct.2015.08.033).

Experiment: mn = molality of the nth substance listed, in mol/kg
Conditions: 100 kPa, Liquid; for speed of sound: Frequency=3 MHz, Sing-around technique in a fixed-path interferometer; for mass density: Vibrating tube method

[Ba+2].[O-][Cl+3]([O-])([O-])[O-].[O-][Cl+3]([O-])([O-])[O-] [barium perchlorate] + CC(=O)N(C)C
Conditions | mass density, 298.15 K [kg/m3] | mass density, 303.15 K [kg/m3] | mass density, 308.15 K [kg/m3] | mass density, 313.15 K [kg/m3] | mass density, 318.15 K [kg/m3] | speed of sound, 298.15 K [m/s] | speed of sound, 303.15 K [m/s] | speed of sound, 308.15 K [m/s] | speed of sound, 313.15 K [m/s] | speed of sound, 318.15 K [m/s]
m1 = 0.01314 | 939.723 | 935.116 | 930.504 | 925.882 | 921.254 | 1457.2 | 1437.5 | 1417.7 | 1398.1 | 1378.6
m1 = 0.02301 | 942.289 | 937.692 | 933.085 | 928.469 | 923.849 | 1458 | 1438.3 | 1418.6 | 1399.1 | 1379.6
m1 = 0.03274 | 944.807 | 940.214 | 935.612 | 931.002 | 926.384 | 1458.8 | 1439.2 | 1419.5 | 1400 | 1380.6
m1 = 0.04665 | 948.382 | 943.793 | 939.196 | 934.591 | 929.98 | 1459.9 | 1440.4 | 1420.8 | 1401.4 | 1382
m1 = 0.06587 | 953.282 | 948.701 | 944.112 | 939.515 | 934.912 | 1461.4 | 1441.9 | 1422.5 | 1403.1 | 1383.8
m1 = 0.08329 | 957.7 | 953.122 | 948.539 | 943.99 | 939.4 | 1462.7 | 1443.3 | 1423.9 | 1405 | 1385.8
m1 = 0.1042 | 963.001 | 958.419 | 953.839 | 949.253 | 944.664 | 1464.5 | 1445 | 1425.7 | 1406.5 | 1387.4
m1 = 0.1312 | 969.764 | 965.202 | 960.631 | 956.055 | 951.474 | 1466.2 | 1447 | 1427.8 | 1408.8 | 1389.8
m1 = 0.1609 | 977.195 | 972.637 | 968.076 | 963.509 | 958.937 | 1468.4 | 1449.3 | 1430.3 | 1411.3 | 1392.5
m1 = 0.1965 | 985.908 | 981.362 | 976.808 | 972.249 | 967.689 | 1470.8 | 1451.9 | 1432.9 | 1414.1 | 1395.4
